{"source": "paper PMC8329121", "about": "(Journal of Neuroimmune Pharmacology, 2021)", "key": {"[1]": {"molecular_target": "T1, E2C-I159A/H547A (C90A/C306A/I159A/H547A) (Homo sapiens, UniProt Q01959, C306A/C90A/H547A/I159A)", "T1 construct": "expressed in transfected cells; host or cells: HEK293 cells, transient, pcDNA3.1+", "T1 sequence (Q01959 1-620 C90A/I159A/C306A/H547A)": "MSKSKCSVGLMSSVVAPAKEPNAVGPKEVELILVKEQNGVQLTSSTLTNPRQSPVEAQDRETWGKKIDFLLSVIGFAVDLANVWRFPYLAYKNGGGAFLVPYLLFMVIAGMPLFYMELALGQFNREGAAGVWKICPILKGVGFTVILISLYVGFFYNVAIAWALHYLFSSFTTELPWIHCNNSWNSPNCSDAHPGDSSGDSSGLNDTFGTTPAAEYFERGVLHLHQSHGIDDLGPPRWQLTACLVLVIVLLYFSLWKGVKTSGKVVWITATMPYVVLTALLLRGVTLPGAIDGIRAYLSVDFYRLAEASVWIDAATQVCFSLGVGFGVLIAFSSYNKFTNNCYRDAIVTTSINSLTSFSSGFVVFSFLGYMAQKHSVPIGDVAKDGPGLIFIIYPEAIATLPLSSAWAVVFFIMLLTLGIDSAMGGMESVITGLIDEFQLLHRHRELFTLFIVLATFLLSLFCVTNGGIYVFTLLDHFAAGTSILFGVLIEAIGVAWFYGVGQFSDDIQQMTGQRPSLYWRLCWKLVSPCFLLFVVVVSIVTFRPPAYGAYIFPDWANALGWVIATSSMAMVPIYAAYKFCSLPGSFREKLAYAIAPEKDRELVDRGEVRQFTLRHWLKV", "assay": "MTSET assay, [3H]DA uptake in HEK293 cells", "assay_type": "cell-based", "conditions": "1 mM MTSET", "excerpt": "(§1) All mutants on hDAT were generated based on the predictions made using our computational model, as described previously using site-directed mutagenesis based on the wild-type hDAT (WT hDAT) sequence (NCBI, cDNA clone MGC: 164,608 IMAGE: 40,146,999) (Quizon et al. [2016]). The combination of hDAT mutations on Asp206 and His547 (Aspartic acid 206 to leucine and histidine 547 to alanine, D206L/H547A) were predicted to eliminate two hydrogen bonds between Tat and hDAT. In addition, the combination of mutations on Tyr88, Asp206, and His547 (tyrosine88 to phenylalanine and aspartic acid 206 to leucine and histidine 547 to alanine, Y88F/D206L/H547A) were predicted to eliminate three hydrogen bonds from the Tat-hDAT complex. Two extracellular cysteine90 and cysteine306 residues on WT hDAT were mutated to alanine as E2C hDAT (C90A/C306A hDAT), rendering the E2C hDAT MTSET-insensitive background (Pedersen et al. [2014]). A triple mutation of the two cysteine90 and 306 residues to alanine and […] to cysteine on WT hDAT was generated as E2C-I159C hDAT (C90A/C306A/I159C) for MTSET-sensitive construct. A combination of C90A/C306A/H547A was generated as E2C/H547A hDAT for MTSET-insensitive control for H547A. To determine whether H547A-enhanced DA transport is mediated by changing transporter conformation, two combinations of C90A/C306A/I159C/H547A and C90A/C306A/I159A/H547A were generated as E2C-I159C/H547A and E2C-I159A/H547A for positive and negative controls for MTSET sensitive background, respectively. Synthetic cDNA encoding hDAT subcloned into pcDNA3.1+ (provided by Dr. Haley E Melikian, University of Massachusetts) was used as a template to generate mutants using site-directed mutagenesis performed by GENEWIZ (South Plainfield, NJ). DNA sequencing was also performed by GENEWIZ to confirm the sequences of the mutant constructs. Plasmid DNA were propagated and purified using the Qiagen Hi-speed maxi prep plasmid DNA isolation kit (Qiagen, Valencia, CA, USA).\n(§2) This assay was performed based on the previous report with minor modifications (Loland et al. [2004], [2008]). First, we generated five WT hDAT based plasmid construct for MTSET-insensitive or sensitive background as we described above. HEK293 cells were grown in poly-d-lysine coated plates at a density of 1 × 10^5 cells/cm^2 were transfected with different E2C- associated hDAT background constructs: E2C hDAT, E2C-I159C hDAT, E2C/H547A hDAT, E2C-I159C/H547A or E2C-I159A/H547A. Twenty-four hours after the transfection, cells were washed twice with 1× KRH buffer, and preincubated with or without the presence of 10 µM nomifensine (for non-specific uptake) and MTSET for 10 min at room temperature. MTSET at 1 mM final concentration was chosen based on a pilot study on optimizing MTSET concentrations (0.1, 0.5 or 1.0 mM). […] Because MTSET is easily hydrolyzed in solution, the amount needed for a 10 × stock was weighed out and dissolved in 1 × KRH buffer just right before adding to the assigned wells, for a 10-fold dilution (final concentration of 1 mM in final volume of 250 µl). […] Cells were immediately washed twice with ice-cold 1 × KRH buffer to terminate the reaction and were lysed rapidly with the addition of 1 % SDS. Cell lysates were collected after incubation for 1 h at room temperature and radioactivity was determined the next day."}, "[2]": {"molecular_target": "T2, E2C-I159C/H547A (C90A/C306A/I159C/H547A) (Homo sapiens, UniProt Q01959, C306A/C90A/H547A/I159C)", "T2 construct": "expressed in transfected cells; host or cells: HEK293 cells, transient, pcDNA3.1+", "T2 sequence (Q01959 1-620 C90A/I159C/C306A/H547A)": "T1 sequence (Q01959 1-620 C90A/I159A/C306A/H547A) with A159C", "assay": "MTSET assay, [3H]DA uptake in HEK293 cells", "assay_type": "cell-based", "conditions": "1 mM MTSET", "excerpt": "as §1, §2"}}, "note": "Where a chain is given by its changes, count along the chain named.", "data": [{"smiles": "C[N+](C)(C)CCSS(C)(=O)=O", "note": "[MTSET, [2-(trimethylammonium)ethyl]-methanethiosulfonate]", "values": [{"measurement": "inhibition of DA uptake relative to E2C", "setting": "[1]; Fig. 8b", "value": 31, "unit": "%"}, {"measurement": "[3H]DA uptake in the presence of MTSET", "setting": "[1]; HEK293, Fig. 8b", "value": "59.7 ± 5.7"}, {"measurement": "further inhibition of [3H]DA uptake compared to E2C-I159C", "setting": "[2]; Fig. 8b", "value": 34, "unit": "%"}, {"measurement": "inhibition of DA uptake relative to E2C", "setting": "[2]; Fig. 8b", "value": 65, "unit": "%"}, {"measurement": "[3H]DA uptake in the presence of MTSET", "setting": "[2]; HEK293, Fig. 8b", "value": "30.4 ± 3.52"}]}]}
